Assay results as given in ChEMBL document CHEMBL1201862, “PubChem BioAssay data set” (2004).
Calls of active or inactive are those of the source.

Experiments:
Cytochrome P450 2C19 = Cytochrome P450 2C19 (Homo sapiens, UniProt P33261); test: Cytochrome panel assay with activity outcomes. Panel member name: p450-cyp2c19 Compounds with AC50 equal or less than 10 uM are considered active; format: functional; conditions: read-out: AC50
Cytochrome P450 1A2 = target: T1, Cytochrome P450 1A2 (Homo sapiens, UniProt P05177);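 also: PubChem cytochrome P450 panel assay, CYP1A2 panel member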
T1 sequence (P05177 whole entry): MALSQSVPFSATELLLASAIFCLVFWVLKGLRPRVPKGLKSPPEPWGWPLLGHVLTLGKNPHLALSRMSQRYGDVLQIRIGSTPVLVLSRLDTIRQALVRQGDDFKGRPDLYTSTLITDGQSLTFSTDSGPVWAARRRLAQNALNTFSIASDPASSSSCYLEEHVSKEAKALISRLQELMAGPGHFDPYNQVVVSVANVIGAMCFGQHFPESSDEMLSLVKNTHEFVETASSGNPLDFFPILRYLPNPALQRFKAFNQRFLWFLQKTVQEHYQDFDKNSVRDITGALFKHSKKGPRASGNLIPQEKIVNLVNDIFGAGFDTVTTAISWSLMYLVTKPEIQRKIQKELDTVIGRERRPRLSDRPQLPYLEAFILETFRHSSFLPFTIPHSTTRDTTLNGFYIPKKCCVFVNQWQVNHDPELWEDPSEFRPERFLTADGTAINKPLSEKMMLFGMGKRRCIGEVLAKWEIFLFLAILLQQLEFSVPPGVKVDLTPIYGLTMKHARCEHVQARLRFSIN

[1] = target: T2, Zinc finger protein mex-5 (Caenorhabditis elegans, UniProt Q9XUB2); test: MEX-5/TCR-2 RNA interaction inhibitors, dose response, biochemical, C. elegans, fluorescence polarization (AID 1960)
T2 sequence (Q9XUB2 whole entry): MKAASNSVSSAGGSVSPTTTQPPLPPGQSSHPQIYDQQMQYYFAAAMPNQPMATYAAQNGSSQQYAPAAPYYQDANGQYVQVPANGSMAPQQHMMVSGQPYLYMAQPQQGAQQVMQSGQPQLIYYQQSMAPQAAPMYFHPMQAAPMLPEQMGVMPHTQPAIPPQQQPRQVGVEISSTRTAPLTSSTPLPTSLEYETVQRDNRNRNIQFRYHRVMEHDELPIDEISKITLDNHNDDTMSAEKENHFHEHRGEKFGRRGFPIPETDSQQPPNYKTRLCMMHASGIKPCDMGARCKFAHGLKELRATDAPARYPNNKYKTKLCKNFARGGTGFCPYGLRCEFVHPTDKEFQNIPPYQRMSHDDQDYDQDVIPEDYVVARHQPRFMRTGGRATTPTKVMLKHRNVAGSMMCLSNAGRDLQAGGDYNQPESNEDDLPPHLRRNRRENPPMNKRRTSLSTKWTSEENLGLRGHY

[2] = target: UDP-galactopyranose mutase (Mycobacterium tuberculosis, UniProt P9WIQ1); test: Inhibitors of Mycobacterium tuberculosis UDP-galactopyranose mutase (UGM) enzyme Measured in Biochemical System Using Plate Reader - 2105-02_Inhibitor_Dose_CherryPick_Activity. [Related pubchem assays (depositor defined):AID504439]
ORF 73 = target: T3, ORF 73 (Human herpesvirus 8, UniProt O40947); test: inhibitors of C-LANA binding to LBS DNA, dose response, biochemical, fluorescence polarization, cherry-picked samples (AID 504725); parameters: species or system Human gammaherpesvirus 8;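 also: fluorescence polarization of a labeled DNA duplex reporting LANA DNA binding; potency is for inhibitors that block LANA binding to the DNA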
T3 sequence (O40947 whole entry): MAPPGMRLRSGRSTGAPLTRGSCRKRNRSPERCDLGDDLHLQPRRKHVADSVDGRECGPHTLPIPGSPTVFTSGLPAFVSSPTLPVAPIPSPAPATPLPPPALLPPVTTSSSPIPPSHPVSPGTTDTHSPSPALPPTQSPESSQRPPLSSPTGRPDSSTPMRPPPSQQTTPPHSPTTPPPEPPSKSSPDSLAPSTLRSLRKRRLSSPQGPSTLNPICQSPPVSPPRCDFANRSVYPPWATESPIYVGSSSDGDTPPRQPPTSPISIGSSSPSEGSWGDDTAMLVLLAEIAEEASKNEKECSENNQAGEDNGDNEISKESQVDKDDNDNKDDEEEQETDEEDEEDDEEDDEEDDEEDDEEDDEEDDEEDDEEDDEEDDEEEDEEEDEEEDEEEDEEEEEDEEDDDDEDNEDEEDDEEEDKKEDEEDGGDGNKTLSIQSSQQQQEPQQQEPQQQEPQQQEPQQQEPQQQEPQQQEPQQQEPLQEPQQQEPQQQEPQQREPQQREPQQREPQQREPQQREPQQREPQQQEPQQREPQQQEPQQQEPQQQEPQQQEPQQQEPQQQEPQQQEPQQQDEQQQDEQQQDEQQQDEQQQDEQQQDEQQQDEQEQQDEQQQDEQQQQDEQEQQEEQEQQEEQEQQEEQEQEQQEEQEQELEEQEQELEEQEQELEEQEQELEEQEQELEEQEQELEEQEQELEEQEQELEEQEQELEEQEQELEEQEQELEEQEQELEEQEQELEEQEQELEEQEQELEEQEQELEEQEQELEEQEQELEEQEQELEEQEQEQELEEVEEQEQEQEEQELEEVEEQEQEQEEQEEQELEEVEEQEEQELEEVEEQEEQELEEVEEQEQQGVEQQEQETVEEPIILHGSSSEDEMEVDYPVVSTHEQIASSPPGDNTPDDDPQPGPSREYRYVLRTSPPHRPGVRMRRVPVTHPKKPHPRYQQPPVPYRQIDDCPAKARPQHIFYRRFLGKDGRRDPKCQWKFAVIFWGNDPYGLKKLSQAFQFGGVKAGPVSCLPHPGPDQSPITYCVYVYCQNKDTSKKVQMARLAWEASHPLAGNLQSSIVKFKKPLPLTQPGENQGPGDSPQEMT

[3] = target: T4, RNA-binding protein pos-1 (Caenorhabditis elegans, UniProt G5EF15); test: inhibitors of POS-1/mex-3 RNA binding, dose response, biochemical, fluorescence polarization (AID 1964);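 also: purified POS-1 fused to maltose binding protein made in E. coli; potency of compounds blocking POS-1 binding to fluorescent RNA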
T4 sequence (G5EF15 whole entry): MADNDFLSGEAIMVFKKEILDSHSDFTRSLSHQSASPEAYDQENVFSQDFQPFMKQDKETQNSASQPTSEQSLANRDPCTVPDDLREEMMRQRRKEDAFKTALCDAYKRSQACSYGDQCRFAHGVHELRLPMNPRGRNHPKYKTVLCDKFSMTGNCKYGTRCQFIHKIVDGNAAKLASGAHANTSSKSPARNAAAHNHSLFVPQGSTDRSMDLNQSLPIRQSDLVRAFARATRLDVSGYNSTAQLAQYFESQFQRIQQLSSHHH

Cytochrome P450 3A4 = Cytochrome P450 3A4 (Homo sapiens, UniProt P08684);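 also: CYP3A4 tested as one member of a cytochrome P450 panel screen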
Cytochrome P450 2C9 = Cytochrome P450 2C9 (Homo sapiens, UniProt P11712)
[4] = target: T5, Mannose-6-phosphate isomerase (Homo sapiens, UniProt P34949); test: PMI enzyme inhibitors, confirmation, biochemical, fluorescence intensity (AID 1535)
T5 sequence (P34949 whole entry): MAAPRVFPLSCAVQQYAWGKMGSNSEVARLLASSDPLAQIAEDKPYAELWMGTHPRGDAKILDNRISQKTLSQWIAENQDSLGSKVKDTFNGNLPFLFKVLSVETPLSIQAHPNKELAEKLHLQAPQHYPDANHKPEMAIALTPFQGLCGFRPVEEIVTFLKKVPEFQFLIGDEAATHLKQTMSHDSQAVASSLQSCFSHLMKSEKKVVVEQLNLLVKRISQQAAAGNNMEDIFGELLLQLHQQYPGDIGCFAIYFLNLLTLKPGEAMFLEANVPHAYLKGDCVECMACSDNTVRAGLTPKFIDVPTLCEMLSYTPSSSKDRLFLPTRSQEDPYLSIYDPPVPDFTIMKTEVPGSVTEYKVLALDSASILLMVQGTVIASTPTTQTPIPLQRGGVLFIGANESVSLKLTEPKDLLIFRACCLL

Phosphomannomutase 2 = Phosphomannomutase 2 (Homo sapiens, UniProt O15305); test: Counter screen SAR assay for PMM2 inhibitors via a fluorescence intensity assay. [Related pubchem assays (depositor defined):AID1545, AID1574]
Mu-type opioid receptor = Mu-type opioid receptor (Homo sapiens, UniProt P35372); test: SAR Analysis of Agonists of the MOR Receptor using an Image-Based Assay - Set 3. [Related pubchem assays (depositor defined):AID1777, AID1785, AID1786, AID1966, AID2133, AID2136, AID2284, AID2285, AID2352]; format: functional
[5] = target: T6, Kappa-type opioid receptor (Homo sapiens, UniProt P41145); test: KOR agonist analogs, arrestin-GFP redistribution, SAR follow-up, imaging, image-based, set 3 (AID 488833); format: functional
[6] = target: Delta-type opioid receptor (Homo sapiens, UniProt P41143); test: SAR Analysis of Agonists of the DOR Receptor using an Image-Based Assay - Set 3. [Related pubchem assays (depositor defined):AID1777, AID1786]; format: functional
[7] = target: T6, Kappa-type opioid receptor; test: SAR analysis of small molecule agonists of the kappa opioid receptor via a luminescent beta-arrestin assay - Set 3. [Related pubchem assays (depositor defined):AID1777, AID1785, AID1786, AID1966, AID2133, AID2136, AID2284, AID2500]; format: functional
[8] = inhibitors of Trypanosoma cruzi host-cell infection, confirmation, beta-gal luminescence, NIH3T3 host cells (AID 2630); format: functional, cell-based; conditions: Mus musculus
Bcl-2-like protein 1 = Bcl-2-like protein 1 (Homo sapiens, UniProt Q07817); test: BCL-XL inhibitors, dose response, selectivity assay for MCL1 inhibitor project, biochemical, fluorescence polarization, 1536-well (AID 2218)
Albumin = Albumin (Bos taurus, UniProt P02769); test: Counterscreen for inhibitors of T-cell receptor (TCR)-CD3 interaction: Fluorescence-based biochemical high throughput dose response assay to identify inhibitors of T-cell receptor (TCR)-CD3 interaction using a TAMRA-labeled BSA probe.; format: functional
Genome polyprotein = Genome polyprotein (dengue virus type 2, UniProt P29990); test: Dengue-2 NS5 methyltransferase inhibitors, primary screen, biochemical, confirmation dose response (AID 588689); format: functional
[9] = target: Intestinal-type alkaline phosphatase (Mus musculus, UniProt P24822); test: mouse intestinal alkaline phosphatase activators, dose response, biochemical, luminescence, uHTS hits (AID 488783); format: functional
[10] = target: Induced myeloid leukemia cell differentiation protein Mcl-1 (Homo sapiens, UniProt Q07820); test: MCL1-BIM BH3 interaction inhibitors, dose response, biochemical, fluorescence polarization, BIM-BH3 peptide, 1536-well (AID 2217)
[11] = target: T7, Alkaline phosphatase, tissue-nonspecific isozyme (Homo sapiens, UniProt P05186); test: TNAP enzyme activators, dose response, selectivity assay for mouse IAP activator project, biochemical, TNAP isozyme, mouse IAP uHTS hits (AID 488880); format: functional
T7 sequence (P05186 whole entry): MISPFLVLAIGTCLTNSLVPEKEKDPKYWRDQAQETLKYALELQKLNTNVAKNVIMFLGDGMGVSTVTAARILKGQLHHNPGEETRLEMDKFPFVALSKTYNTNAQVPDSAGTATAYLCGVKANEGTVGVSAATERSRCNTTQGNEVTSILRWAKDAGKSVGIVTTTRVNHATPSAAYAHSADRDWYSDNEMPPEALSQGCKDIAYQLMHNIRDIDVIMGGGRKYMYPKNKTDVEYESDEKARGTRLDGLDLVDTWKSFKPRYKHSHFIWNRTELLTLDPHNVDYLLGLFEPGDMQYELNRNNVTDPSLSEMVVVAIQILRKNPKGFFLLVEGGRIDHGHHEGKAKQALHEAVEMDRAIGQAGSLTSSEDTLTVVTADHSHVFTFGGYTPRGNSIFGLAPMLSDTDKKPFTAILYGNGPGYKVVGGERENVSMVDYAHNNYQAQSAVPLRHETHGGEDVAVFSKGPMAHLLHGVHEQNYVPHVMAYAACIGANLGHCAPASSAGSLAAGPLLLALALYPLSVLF

[12] = target: Intestinal-type alkaline phosphatase (Homo sapiens, UniProt P09923); test: activation of human intestinal alkaline phosphatase – biochemical, dose response (AID 488873); format: functional

T6 sequence (P41145 whole entry): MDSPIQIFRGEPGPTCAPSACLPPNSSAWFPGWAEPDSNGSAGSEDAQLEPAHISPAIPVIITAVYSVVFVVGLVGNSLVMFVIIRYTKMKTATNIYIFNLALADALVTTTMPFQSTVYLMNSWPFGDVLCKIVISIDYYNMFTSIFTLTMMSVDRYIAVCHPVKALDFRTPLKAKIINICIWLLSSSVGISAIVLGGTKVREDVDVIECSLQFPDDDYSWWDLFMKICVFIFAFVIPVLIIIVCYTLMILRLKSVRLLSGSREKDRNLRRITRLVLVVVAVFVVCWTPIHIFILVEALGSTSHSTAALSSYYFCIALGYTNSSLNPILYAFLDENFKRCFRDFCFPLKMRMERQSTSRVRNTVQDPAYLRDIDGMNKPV
Cytochrome P450 2C19, sequence (P33261 whole entry): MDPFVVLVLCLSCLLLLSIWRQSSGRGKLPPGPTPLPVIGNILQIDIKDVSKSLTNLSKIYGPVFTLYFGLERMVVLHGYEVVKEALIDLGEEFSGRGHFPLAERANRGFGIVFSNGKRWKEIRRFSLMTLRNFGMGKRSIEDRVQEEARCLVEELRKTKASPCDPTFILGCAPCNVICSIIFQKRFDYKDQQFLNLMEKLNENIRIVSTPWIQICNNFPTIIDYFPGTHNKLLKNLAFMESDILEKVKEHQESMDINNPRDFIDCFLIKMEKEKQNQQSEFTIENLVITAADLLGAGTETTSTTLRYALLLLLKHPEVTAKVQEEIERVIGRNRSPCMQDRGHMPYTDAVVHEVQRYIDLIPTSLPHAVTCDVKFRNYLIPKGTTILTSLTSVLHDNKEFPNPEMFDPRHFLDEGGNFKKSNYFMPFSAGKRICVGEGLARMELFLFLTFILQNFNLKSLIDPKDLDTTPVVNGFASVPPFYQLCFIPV
Phosphomannomutase 2, sequence (O15305 whole entry): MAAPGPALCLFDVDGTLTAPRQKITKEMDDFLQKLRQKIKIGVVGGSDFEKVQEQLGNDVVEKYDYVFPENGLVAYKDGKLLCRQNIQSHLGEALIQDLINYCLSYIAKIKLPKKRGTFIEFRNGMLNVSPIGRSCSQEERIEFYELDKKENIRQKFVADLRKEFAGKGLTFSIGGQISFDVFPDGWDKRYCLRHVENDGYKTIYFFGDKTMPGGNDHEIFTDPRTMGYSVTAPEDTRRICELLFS
Delta-type opioid receptor, sequence (P41143 whole entry): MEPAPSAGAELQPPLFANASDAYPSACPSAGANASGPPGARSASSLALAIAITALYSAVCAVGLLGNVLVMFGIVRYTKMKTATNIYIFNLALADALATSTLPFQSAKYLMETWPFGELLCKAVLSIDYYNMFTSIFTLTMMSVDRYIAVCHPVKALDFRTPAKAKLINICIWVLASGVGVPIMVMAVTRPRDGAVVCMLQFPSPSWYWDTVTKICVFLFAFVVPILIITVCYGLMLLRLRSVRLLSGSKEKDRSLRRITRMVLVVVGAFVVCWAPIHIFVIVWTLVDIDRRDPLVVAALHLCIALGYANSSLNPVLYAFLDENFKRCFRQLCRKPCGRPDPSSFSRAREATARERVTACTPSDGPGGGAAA
Intestinal-type alkaline phosphatase (Mus musculus, UniProt P24822), sequence (P24822 whole entry): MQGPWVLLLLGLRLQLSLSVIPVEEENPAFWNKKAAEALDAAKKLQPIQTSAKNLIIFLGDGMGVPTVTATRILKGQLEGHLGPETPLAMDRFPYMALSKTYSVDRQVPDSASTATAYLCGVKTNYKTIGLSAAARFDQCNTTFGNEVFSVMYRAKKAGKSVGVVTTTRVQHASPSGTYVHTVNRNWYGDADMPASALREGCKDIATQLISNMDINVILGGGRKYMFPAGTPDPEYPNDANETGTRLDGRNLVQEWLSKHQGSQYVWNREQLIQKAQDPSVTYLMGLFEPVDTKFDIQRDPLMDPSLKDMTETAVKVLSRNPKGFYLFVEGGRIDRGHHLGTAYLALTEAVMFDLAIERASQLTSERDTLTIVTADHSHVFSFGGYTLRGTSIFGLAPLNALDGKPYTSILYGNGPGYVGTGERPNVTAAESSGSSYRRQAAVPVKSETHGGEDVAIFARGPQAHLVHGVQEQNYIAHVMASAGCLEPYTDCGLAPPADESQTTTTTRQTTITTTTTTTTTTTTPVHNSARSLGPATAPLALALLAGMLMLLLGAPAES
Bcl-2-like protein 1, sequence (Q07817 whole entry): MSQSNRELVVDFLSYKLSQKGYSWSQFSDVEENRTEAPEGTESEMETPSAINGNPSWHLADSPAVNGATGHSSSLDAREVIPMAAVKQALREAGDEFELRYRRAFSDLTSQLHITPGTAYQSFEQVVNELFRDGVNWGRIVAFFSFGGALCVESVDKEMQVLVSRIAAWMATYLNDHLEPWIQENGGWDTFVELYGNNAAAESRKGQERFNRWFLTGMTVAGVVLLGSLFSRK
Induced myeloid leukemia cell differentiation protein Mcl-1, sequence (Q07820 whole entry): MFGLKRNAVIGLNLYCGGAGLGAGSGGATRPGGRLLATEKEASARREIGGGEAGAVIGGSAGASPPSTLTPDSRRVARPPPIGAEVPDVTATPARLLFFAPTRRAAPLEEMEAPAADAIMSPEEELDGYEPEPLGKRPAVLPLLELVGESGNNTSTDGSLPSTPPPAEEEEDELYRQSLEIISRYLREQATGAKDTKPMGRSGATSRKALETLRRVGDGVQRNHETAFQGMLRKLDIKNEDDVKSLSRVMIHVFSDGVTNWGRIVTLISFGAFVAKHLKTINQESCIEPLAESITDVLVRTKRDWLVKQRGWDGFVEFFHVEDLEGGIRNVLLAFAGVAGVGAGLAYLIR
Genome polyprotein, sequence (P29990 2492-3391 limits assumed): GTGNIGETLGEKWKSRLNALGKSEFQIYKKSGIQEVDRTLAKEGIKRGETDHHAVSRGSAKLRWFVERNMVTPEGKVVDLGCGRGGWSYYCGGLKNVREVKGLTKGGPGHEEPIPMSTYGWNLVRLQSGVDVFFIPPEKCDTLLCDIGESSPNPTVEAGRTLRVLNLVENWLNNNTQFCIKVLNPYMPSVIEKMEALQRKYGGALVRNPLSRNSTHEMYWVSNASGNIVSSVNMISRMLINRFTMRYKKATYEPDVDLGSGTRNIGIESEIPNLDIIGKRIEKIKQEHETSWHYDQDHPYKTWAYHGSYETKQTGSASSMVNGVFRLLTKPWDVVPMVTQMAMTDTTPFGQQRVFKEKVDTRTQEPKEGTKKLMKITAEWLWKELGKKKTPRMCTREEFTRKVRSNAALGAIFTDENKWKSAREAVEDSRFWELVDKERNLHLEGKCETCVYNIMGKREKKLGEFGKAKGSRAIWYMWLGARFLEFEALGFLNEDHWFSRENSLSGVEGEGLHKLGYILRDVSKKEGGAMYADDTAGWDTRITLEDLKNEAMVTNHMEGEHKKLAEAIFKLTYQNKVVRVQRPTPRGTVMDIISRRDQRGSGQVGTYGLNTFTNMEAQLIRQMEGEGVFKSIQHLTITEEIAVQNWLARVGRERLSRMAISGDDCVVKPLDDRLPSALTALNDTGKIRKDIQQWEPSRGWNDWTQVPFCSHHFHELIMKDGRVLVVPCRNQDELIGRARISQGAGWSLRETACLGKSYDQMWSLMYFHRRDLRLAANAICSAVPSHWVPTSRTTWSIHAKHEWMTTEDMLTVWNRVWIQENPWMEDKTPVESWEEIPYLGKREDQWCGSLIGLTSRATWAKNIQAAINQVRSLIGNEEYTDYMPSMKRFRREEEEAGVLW
Cytochrome P450 3A4, sequence (P08684 whole entry): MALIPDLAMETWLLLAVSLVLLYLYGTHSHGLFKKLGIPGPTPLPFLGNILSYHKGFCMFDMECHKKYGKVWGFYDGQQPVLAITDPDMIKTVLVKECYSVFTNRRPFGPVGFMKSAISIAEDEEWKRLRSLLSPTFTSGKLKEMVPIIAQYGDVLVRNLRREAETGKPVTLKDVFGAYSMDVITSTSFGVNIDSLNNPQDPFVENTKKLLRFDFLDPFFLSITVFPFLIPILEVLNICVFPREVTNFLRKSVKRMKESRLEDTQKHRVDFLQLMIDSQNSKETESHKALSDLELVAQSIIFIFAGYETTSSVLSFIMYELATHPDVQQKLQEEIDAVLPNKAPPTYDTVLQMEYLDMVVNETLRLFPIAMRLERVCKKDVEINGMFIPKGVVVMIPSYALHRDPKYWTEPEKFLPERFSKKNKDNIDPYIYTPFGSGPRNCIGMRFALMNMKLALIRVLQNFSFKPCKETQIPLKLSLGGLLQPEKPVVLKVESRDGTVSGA
Cytochrome P450 2C9, sequence (P11712 whole entry): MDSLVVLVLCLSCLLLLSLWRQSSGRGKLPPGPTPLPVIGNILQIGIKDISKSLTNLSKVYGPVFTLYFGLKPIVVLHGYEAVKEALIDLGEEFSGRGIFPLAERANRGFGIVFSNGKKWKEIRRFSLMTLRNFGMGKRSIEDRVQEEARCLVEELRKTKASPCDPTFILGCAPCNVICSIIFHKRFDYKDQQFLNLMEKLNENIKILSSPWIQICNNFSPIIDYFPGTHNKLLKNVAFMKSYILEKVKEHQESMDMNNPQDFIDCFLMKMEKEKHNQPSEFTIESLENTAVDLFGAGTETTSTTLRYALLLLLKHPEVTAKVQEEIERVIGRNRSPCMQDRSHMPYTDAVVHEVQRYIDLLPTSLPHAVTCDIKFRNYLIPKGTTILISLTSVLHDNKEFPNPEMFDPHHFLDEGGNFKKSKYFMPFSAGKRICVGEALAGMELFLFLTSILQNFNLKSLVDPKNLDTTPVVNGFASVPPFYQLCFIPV
UDP-galactopyranose mutase, sequence (P9WIQ1 whole entry): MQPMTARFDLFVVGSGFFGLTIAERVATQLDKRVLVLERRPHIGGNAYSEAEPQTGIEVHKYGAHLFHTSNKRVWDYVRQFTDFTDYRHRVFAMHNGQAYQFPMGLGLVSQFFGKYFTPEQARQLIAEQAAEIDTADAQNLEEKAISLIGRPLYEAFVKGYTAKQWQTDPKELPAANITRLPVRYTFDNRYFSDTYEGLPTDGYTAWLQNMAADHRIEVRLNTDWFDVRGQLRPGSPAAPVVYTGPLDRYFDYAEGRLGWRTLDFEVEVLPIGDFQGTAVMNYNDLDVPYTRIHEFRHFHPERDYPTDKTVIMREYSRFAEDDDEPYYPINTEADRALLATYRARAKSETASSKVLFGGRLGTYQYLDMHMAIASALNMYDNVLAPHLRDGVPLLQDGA

For CC(C)[C@@H]1C(=O)N(S(C)(=O)=O)[C@H]2CCN(C(=O)/C=C\CN3CCCCC3)[C@@H]12, the AC50 (Cytochrome P450 2C19) was 20 µM (inconclusive) and the AC50 (Cytochrome P450 1A2) was “inconclusive”.
With Cc1ccc(C)c(N2CCN(C(=O)c3cc4ccccn4n3)CC2)c1 the EC50 [1] was 33.7 µM (active), the AC50 [2] was 177 µM (active) and the AC50 (ORF 73) was 269 µM (active). For the same compound, the EC50 [3] was 72.9 µM (active).
For Cc1ccc(C)c(N2CCN(C(=O)C3CCN(S(=O)(=O)c4cccc5nsnc45)CC3)CC2)c1, the AC50 (Cytochrome P450 2C19) was 4.47 µM (inconclusive), the AC50 (Cytochrome P450 3A4) was “inconclusive” and the AC50 (Cytochrome P450 2C9) was 7.08 µM (inconclusive).
With COCC/N=c1\ssnc1Cl the IC50 [4] was 11.9 µM (active) and the IC50 (Phosphomannomutase 2) was > 100 µM (inactive).
With Fc1ccc(CSc2nnc(-c3ccccn3)n2Cc2ccco2)c(F)c1F the EC50 (Mu-type opioid receptor) was > 32 µM (inactive), the EC50 [5] was 5.29 µM (active) and the EC50 [6] was > 64 µM (inactive). For the same compound, the EC50 [7] was 7.01 µM (active).
In the case of O=C(CN1CCOCC1)N/N=C/c1ccc([N+](=O)[O-])o1, the EC50 [8] is reported as 0.127 µM (active).
For O=c1cc(-c2ccc(O)cc2)oc2c(O)c(O)c(O)c(O)c12, the IC50 (Bcl-2-like protein 1) was > 109 µM (not active), the IC50 (Albumin) was > 94.2 µM (inactive) and the IC50 (Genome polyprotein) was > 100 µM (active). The EC50 [9] was 71.9 µM (active), the IC50 [10] was 18.8 µM (not active) and the EC50 [11] was 43.4 µM (active). The EC50 [12] was 81 µM (active).
